# Experimental data: publication PMC8002391, “A High-Throughput Screening System Based on Fluorescence-Activated Cell Sorting for the Directed Evolution of Chitinase A” (International Journal of Molecular Sciences, 2021)
# Target: T1, ChiA (chitinase A) (Bacillus licheniformis, UniProt B7UB89)
# T1 construct: synthetic chiA gene in pET22b(+), in frame with pelB signal for periplasmic expression in E. coli BL21 (DE3); whole cells assayed
# Experiment: fluorescence microtiter plate assay with whole E. coli cells expressing chiA (4MU release)
# Type: cell-based
# Details: 0.1 M sodium acetate pH 6.0; 25 µL cells + 25 µL 0.5 mg/mL 4MUTC; empty-vector cells as control
# T1 sequence (B7UB89 1-580): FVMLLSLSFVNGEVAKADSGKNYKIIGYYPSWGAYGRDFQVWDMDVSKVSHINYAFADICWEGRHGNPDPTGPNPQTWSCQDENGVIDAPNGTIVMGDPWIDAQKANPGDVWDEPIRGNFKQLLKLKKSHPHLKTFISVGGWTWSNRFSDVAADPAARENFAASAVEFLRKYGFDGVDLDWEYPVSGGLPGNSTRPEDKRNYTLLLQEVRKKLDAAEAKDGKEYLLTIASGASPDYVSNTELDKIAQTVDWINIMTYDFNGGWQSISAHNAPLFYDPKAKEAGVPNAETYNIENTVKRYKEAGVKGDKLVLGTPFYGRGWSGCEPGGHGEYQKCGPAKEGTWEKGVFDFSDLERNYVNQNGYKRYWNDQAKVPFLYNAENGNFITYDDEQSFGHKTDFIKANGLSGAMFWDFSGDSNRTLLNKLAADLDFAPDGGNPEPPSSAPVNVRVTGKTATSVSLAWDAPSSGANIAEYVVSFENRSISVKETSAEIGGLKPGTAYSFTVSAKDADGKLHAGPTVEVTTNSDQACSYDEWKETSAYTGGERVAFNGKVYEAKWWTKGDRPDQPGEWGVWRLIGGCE
smiles,measurement,value
"CC(=O)N[C@H]1[C@H](Oc2ccc3c(C)cc(=O)oc3c2)O[C@H](CO)[C@@H](O[C@@H]2O[C@H](CO)[C@@H](O[C@@H]3O[C@H](CO)[C@@H](O)[C@H](O)[C@H]3NC(C)=O)[C@H](O)[C@H]2NC(C)=O)[C@@H]1O [4-methylumbelliferyl β-D-N,N′,N″-triacetyl chitotrioside]",fluorescence microtiter plate assay with whole E. coli cells expressing chiA (4M),comparing E. coli cells expressing chiA to those transformed with the empty vector
